# Read-outs that look alike come from different tables or passages of the source.
# Legend:
# Assay in all cases: HotSpot kinase profiling
# Assay type in all cases: biochemical
# [1] = target: T1, CDC7/DBF4 (Homo sapiens, UniProt O00311)
# T1 construct: purchased Reaction Biology Corp
# Summary of the method: (§1)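 Radiometric kinase assay with P81 filter capture; each kinase was added to fresh substrate plus cofactors in reaction buffer and incubated 2 h at room temperature. Unreacted phosphate was washed off with 0.1% phosphoric acid before detection; percent inhibition is relative to DMSO control, averaged over replicates.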
# [2] = target: T2, SIK1 (Homo sapiens, UniProt P57059)
# T2 construct: purchased Reaction Biology Corp
# Summary of the method: as §1
# [3] = target: T3, DLK/MAP3K12 (Homo sapiens, UniProt Q12852)
# T3 construct: purchased Reaction Biology Corp
# T3 sequence (Q12852 1-859): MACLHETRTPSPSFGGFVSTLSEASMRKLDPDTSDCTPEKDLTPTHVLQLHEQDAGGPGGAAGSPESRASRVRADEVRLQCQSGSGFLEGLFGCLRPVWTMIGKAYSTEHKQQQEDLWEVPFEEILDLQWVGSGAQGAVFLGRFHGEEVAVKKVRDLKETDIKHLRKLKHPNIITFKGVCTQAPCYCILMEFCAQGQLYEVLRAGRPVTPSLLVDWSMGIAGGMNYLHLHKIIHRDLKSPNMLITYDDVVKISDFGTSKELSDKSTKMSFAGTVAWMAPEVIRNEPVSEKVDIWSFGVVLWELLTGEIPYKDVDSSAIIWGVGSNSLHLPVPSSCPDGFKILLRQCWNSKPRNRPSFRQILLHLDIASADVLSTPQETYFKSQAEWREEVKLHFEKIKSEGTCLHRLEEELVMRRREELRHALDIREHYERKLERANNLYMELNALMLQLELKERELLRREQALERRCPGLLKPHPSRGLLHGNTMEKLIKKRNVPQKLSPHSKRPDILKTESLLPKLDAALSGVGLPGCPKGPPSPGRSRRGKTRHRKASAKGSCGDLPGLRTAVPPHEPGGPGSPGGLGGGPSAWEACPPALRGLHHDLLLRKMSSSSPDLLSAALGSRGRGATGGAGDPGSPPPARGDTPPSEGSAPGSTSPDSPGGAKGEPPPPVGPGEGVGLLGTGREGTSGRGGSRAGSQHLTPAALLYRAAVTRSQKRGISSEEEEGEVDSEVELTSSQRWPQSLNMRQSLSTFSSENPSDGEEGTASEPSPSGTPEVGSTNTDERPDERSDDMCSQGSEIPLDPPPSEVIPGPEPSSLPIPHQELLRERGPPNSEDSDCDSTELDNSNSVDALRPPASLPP
# Summary of the method: as §1
# [4] = target: T4, BRSK1 (Homo sapiens, UniProt Q8TDC3)
# T4 construct: purchased Reaction Biology Corp
# T4 sequence (Q8TDC3 1-778): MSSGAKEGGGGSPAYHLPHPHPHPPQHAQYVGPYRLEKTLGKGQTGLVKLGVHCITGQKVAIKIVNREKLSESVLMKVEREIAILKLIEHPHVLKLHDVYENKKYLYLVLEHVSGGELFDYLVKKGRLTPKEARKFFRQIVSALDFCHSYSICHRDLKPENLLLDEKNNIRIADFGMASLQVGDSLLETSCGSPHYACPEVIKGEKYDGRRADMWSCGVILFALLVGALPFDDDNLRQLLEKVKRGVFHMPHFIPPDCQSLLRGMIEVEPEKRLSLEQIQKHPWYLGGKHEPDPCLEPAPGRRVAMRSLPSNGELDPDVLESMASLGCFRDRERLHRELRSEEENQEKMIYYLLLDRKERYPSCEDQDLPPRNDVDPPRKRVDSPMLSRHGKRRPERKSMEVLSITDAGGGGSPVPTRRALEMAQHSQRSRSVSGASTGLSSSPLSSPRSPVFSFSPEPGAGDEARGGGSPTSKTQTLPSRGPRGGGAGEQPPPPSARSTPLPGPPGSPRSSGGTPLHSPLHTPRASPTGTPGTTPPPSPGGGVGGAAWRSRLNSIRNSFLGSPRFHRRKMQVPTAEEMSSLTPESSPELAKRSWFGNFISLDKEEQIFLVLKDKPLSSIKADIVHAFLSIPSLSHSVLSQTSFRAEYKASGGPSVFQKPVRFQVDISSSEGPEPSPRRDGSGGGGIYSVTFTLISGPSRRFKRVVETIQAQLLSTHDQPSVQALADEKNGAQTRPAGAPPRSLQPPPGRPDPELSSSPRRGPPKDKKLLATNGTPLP
# Summary of the method: as §1
# [5] = target: T5, FLT4/VEGFR3 (Homo sapiens, UniProt P35916)
# T5 construct: purchased Reaction Biology Corp
# Summary of the method: as §1
# [6] = target: T6, RSK1 (Homo sapiens, UniProt Q15418)
# T6 construct: purchased Reaction Biology Corp
# Summary of the method: as §1
# [7] = target: T7, TAK1 (Homo sapiens, UniProt O43318)
# T7 construct: purchased Reaction Biology Corp
# T7 sequence (O43318 1-303 limits assumed): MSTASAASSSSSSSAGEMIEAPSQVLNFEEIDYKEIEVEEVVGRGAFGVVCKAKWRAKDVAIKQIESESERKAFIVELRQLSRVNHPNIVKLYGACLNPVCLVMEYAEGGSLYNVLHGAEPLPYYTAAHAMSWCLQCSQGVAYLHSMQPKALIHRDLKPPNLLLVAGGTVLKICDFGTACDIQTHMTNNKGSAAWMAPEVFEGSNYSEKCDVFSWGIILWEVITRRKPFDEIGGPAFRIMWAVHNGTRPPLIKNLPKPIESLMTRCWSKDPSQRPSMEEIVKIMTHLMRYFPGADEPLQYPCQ
# Summary of the method: as §1
# [8] = read-out: % Enzyme Activity (relative to DMSO controls) Run 1
# [9] = read-out: % Enzyme Activity (relative to DMSO controls) Run 2
# T2 sequence (P57059 whole entry): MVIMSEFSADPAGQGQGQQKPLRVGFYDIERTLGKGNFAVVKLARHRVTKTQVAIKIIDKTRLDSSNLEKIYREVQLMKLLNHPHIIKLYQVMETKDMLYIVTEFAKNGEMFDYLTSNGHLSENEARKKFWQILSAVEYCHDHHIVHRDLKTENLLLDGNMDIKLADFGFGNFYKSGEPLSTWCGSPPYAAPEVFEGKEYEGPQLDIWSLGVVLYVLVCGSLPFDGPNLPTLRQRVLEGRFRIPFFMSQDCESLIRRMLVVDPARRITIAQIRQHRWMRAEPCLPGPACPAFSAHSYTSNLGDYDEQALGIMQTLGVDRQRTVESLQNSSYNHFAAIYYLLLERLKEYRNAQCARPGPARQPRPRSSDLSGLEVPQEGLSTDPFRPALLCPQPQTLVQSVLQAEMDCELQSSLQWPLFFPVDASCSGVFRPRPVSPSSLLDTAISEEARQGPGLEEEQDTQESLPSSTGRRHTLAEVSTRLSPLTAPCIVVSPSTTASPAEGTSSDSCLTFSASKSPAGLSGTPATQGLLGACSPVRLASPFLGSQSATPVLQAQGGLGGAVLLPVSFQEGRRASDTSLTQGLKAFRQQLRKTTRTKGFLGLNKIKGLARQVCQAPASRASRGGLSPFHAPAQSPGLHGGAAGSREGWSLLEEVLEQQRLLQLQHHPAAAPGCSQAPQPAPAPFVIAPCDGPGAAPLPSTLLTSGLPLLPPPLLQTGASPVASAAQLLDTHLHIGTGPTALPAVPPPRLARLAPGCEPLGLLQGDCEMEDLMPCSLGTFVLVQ
# T6 sequence (Q15418 whole entry): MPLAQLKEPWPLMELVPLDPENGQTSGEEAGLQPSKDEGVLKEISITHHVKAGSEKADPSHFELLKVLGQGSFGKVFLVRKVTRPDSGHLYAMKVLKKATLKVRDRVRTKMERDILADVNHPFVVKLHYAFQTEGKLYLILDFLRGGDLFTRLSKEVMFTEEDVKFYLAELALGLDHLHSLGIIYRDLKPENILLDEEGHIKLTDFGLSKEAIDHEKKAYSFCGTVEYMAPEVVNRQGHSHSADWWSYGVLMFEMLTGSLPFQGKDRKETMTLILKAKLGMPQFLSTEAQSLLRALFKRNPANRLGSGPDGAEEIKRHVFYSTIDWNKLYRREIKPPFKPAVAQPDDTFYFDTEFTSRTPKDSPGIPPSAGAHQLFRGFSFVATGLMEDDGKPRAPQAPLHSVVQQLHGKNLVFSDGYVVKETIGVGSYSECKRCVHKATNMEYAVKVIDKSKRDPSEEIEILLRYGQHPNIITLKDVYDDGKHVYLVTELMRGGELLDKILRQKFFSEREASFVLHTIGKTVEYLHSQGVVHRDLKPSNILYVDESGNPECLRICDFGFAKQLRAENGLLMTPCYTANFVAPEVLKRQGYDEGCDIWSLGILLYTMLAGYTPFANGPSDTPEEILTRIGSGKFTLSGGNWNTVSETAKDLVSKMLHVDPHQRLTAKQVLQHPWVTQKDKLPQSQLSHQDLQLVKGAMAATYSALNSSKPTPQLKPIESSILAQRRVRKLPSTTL
# T5 sequence (P35916 25-1363): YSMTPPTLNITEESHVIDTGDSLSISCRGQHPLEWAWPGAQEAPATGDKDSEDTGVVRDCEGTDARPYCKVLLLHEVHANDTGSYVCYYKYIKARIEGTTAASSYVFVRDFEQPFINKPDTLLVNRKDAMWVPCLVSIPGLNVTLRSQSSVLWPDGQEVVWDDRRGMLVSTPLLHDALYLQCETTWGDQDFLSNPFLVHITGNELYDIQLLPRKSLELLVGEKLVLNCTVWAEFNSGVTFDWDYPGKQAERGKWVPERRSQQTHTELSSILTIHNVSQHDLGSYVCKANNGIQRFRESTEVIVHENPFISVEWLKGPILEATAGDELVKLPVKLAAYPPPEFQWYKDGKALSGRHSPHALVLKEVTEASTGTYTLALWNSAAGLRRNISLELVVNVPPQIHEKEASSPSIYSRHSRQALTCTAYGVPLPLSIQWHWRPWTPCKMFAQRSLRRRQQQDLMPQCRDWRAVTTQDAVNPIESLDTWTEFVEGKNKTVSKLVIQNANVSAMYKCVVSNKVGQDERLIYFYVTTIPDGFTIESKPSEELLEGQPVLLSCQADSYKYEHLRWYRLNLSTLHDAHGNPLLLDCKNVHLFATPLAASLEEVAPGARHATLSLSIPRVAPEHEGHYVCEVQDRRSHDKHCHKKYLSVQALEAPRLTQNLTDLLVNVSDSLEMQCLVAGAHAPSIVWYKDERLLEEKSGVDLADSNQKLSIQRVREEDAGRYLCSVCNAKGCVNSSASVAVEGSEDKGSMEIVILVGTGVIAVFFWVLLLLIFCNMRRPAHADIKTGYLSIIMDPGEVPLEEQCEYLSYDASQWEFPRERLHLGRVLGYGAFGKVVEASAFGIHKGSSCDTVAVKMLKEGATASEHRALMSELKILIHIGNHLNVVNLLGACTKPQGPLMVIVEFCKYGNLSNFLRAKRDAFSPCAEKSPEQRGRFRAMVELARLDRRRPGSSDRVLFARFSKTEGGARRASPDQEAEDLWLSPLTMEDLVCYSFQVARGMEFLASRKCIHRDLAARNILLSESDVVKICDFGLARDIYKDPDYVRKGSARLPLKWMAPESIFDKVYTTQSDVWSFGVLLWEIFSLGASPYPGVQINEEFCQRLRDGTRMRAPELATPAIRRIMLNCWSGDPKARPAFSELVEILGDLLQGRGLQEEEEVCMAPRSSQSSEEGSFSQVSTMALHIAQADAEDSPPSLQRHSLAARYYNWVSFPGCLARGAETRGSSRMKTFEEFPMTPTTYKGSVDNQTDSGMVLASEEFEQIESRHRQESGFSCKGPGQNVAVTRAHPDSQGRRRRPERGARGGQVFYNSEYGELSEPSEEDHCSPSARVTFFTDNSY
# T1 sequence (O00311 whole entry): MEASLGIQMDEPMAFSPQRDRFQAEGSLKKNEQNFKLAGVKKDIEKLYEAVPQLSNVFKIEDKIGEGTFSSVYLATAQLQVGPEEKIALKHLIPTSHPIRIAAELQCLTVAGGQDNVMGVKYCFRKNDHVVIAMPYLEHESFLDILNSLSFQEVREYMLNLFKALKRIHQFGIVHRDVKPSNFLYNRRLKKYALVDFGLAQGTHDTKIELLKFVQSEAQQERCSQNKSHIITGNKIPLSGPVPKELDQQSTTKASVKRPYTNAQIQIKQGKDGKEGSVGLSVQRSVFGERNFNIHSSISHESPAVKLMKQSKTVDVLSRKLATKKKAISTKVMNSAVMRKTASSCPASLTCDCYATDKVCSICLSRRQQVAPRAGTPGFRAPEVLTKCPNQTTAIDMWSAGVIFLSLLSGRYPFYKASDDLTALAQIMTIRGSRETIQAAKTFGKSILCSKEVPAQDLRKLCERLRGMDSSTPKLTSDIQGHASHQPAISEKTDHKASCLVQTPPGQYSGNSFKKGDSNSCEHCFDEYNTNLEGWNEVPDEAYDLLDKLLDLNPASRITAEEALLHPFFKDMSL
# T1 sequence (Q9UBU7 whole entry partner): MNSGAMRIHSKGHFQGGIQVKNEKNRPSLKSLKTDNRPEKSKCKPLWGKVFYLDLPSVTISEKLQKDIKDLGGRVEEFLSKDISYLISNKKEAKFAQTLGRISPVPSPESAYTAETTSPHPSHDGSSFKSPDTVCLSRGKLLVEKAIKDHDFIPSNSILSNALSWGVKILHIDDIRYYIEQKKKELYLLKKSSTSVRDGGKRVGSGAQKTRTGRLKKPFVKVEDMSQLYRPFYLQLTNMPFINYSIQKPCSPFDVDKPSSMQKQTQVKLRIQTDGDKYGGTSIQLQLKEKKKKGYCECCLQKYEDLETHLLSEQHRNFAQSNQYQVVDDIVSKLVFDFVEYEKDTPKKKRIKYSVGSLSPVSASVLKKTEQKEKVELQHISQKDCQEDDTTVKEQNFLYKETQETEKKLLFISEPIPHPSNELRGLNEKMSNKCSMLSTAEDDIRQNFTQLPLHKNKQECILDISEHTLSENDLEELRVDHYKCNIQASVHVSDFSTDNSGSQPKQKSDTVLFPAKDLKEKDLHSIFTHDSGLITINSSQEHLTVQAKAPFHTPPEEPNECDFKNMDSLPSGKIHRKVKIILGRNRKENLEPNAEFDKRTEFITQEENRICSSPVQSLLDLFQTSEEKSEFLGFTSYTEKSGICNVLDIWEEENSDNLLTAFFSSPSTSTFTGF
structure (smiles),measurement,setting,value
C=CC(=O)Nc1cccc(Nc2nc(Nc3ccc(OCCOC)c(F)c3)ncc2F)c1 [Compound 2],inhibition at 3 µM,[1],-2.02%
same,remaining activity at 3 µM,[1]; [8],100%
same,remaining activity at 3 µM,[1]; [9],104%
same,inhibition at 3 µM,[2],51.4%
same,remaining activity at 3 µM,[2]; [8],48.4%
same,remaining activity at 3 µM,[2]; [9],48.7%
same,inhibition at 3 µM,[3],22.8%
same,remaining activity at 3 µM,[3]; [8],74.2%
same,remaining activity at 3 µM,[3]; [9],80.2%
same,inhibition at 3 µM,[4],11.8%
same,remaining activity at 3 µM,[4]; [8],87.1%
same,remaining activity at 3 µM,[4]; [9],89.4%
same,inhibition at 3 µM,[5],56%
same,remaining activity at 3 µM,[5]; [8],43.8%
same,remaining activity at 3 µM,[5]; [9],44.2%
same,inhibition at 3 µM,[6],27.1%
same,remaining activity at 3 µM,[6]; [8],73.3%
same,remaining activity at 3 µM,[6]; [9],72.5%
same,inhibition at 3 µM,[7],27.3%
same,remaining activity at 3 µM,[7]; [8],73.4%
same,remaining activity at 3 µM,[7]; [9],72%

# From patent US9492471B2, “Methods of treating a disease or disorder associated with Bruton'S Tyrosine Kinase” (Celgene Avilomics Research, Inc., priority 2013, dated 2016)
